From patent US6784192B2, “Piperidine compound and pharmaceutical composition thereof” (Eisai Co., Ltd., priority 2000, dated 2004)
Where a name gives a salt, the structure may show the parent alone. Read-outs that look alike come from different tables or passages of the source.

Experiments:
rabbit atrial muscle = test: Assessment for rabbit atrial muscle, Vmax; conditions: Test Example 4, right atrial muscle, stimulation frequency 4 Hz, 15 minutes
Procedure: The specimen of the right atrial muscle which was enucleated from rabbit was used for the present experiment. The electrical stimulation was applied for the right atrial muscle which was enucleated, under conditions: a stimulation duration of 1 mess; a stimulation frequency of 4 Hz; and a stimulation intensity of about 1.2-fold of the threshold. The stimulation was provided from 30 minutes to 60 minutes before start of the experiment, and the condition of the specimen was stabilized. The action potential was recorded according to a glass microelectrode method. 3 M KCl was charged in the glass electrode, inserted in the specimen of the right atrium, and the action potential was recorded. Vmax is the parameter of the maximum upstroke slope of the action potential recorded, and a value which was automatically calculated by an action potential analysis soft (CAPA 1.23 manufactured by Physiotec. Co., Ltd.) was used. After the action potential in a normal Tyrode solution was recorded as control, the action potential after flowing the tested substances at respective concentrations for 15 minutes was recorded. The action of the tested substance for Vmax was calculated as an IC50 value.

[1] = system: spontaneous nerve discharge of cut left saphenous nerve; test: Suppression of spontaneous nerve discharge (ectopic firing); type: in vivo; conditions: Test Example 5, rat, intravenous catheter, urethane anesthetized; for ED50: read-out: Ectopic Firing (ID50 mg/kg)
Procedure: In order to assess the suppression action for spontaneous nerve discharge, the experiment was carried out by a method below, referring to “Burchiel, K J., Exp. Nuerol., 102, 249-253 (1988)”. Namely, for the rat in which spontaneous discharge was observed, the left saphenous nerve was cut off nearby knee articulatio before 1 week or more, and around 3 mm of the nerve was cut off so that the nerve was not adhered again. The left saphenous nerve was exposed under urethane (1 g/kg body weight) anesthetized, and about 1 cm of adjacent portion from the cut portion was peeled from a periphery tissue. Further, a catheter was preliminarily inserted in the vein of a right neck for administration of a compound. The peeled nerve was mounted on a platinum hook electrode, and liquid paraffin was put on it so that the nerve was not dried. The electrode was connected with a fine electrode amplifier, and the value was recorded on a computer through an AD/converter from an oscilloscope. The nerve discharge recorded was assessed by the number of ignition per 10 seconds using an analysis soft (AcqKnowledge).

[2] = system: sodium channel of synaptosome of rat cerebral cortex; test: Assessment for sodium channel of synaptosome of rat cerebral cortex (SBFI); type: cell-based
Procedure: In the present experiment the synaptosome which was extracted from rat cerebral cortex was used. After sodium ion-sensitive dye, SBFI was taken in, the synaptosome was reacted with the respective tested substances (3 samples in 6 concentrations) at room temperature for 15 minutes in a 96 wells plate. The sodium channel inhibitory activity was measured using FDSS2000 of HAMAMATSU Photonics Co., Ltd. The sodium ion concentration in the synaptosome was measured once per 5 seconds using the fluorescent intensity of SBFI as an index. After measuring the control value 10 times, Veratridine was added so that the final concentration was 20 μM, and further measurement was carried out 30times. The inhibitory activity value of the tested substances for sodium channel was calculated, setting the action only by a measurement solution without the tested substance, as 0%, and the inhibitory activity caused by 2 μM of TTX which was a positive control, as 100%, as an inhibitory activity value corresponding to this action, using the increase of the fluorescent intensity of SBFI to the control value which was generated after addition of Veratridine, as an index.

[3] = read-out: SBFI (IC50 μM); Test Example 3; Veratridine 20 μM; 2 μM TTX as 100%
[4] = Test Example 3; Veratridine 20 μM; 2 μM TTX as 100%; read-out: SBFI (IC50 μM)

SMILES	IC50 (rabbit atrial muscle; Oryctolagus cuniculus, 0.25 h)	ED50 [1]	IC50 [2, 3]	IC50 (rabbit atrial muscle)	Ectopic Firing (ID50 mg/kg) [1]	IC50 [2, 4]
Cc1ccccc1CCC1CCN(Cc2ccc[nH]c2=O)CC1 [Example 285, 1-[(2-Oxo-1,2-dihydro-3-pyridinyl)methyl]-4-[2-(2-methylphenyl)ethyl]piperidine]	2.9 µM	0.13 mg/kg	7.7 µM	–	–	–
O=c1[nH]cc(Br)cc1CN1CCC(CCc2cccc3c2OCO3)CC1 [Example 291, 1-[(5-Bromo-2-oxo-1,2-dihydro-3-pyridinyl)methyl]-4-[2-[2,3-(methylenedioxy)phenyl]ethyl]piperidine]	–	–	–	6 µM	0.1 mg/kg	14.5 µM
O=c1[nH]cc(Cl)cc1CN1CCC(CCc2ccccc2OCc2ccccc2)CC1 [Example 299]	50 µM	0.1 mg/kg	5.3 µM	–	–	–
O=c1[nH]cc(Cl)cc1CN1CCC(CCc2ccccc2OCC2CCCCC2)CC1 [Example 301, 1-[(5-Chloro-2-oxo-1,2-dihydro-3-pyridinyl)methyl]-4-[2-[2-(cyclohexylmethyloxy)phenyl]ethyl]piperidine]	100 µM	0.18 mg/kg	6.5 µM	–	–	–
O=C(O)C(=O)O.O=c1[nH]cccc1CN1CCC(CCc2ccccc2OCC2CCCCC2)CC1 [Example 302, 1-[(2-Oxo-1,2-dihydro-3-pyridinyl)methyl]-4-[2-[2-(cyclohexylmethyloxy)phenyl]ethyl]piperidine oxalate]	22.5 µM	0.14 mg/kg	1.2 µM	–	–	–
O=C(O)C(=O)O.O=c1[nH]cccc1CN1CCC(CCc2ccccc2CCc2ccccc2)CC1 [Example 306, 1-[(2-Oxo-1,2-dihydro-3-pyridinyl)methyl]-4-[[2-(2-phenylethyl)phenyl]ethyl]piperidine oxalate]	1.9 µM	0.17 mg/kg	1.3 µM	–	–	–
CC(C)COc1ccccc1CCC1CCN(Cc2ccc[nH]c2=O)CC1.O=C(O)C(=O)O [Example 308, 1-[(2-Oxo-1,2-dihydro-3-pyridinyl)methyl]-4-[2-[2-(isobutyloxy)phenyl]ethyl]piperidine oxalate]	3.1 µM	0.22 mg/kg	0.5 µM	–	–	–
O=C(O)C(=O)O.O=c1[nH]cccc1CN1CCC(CCc2ccccc2OCCc2ccccc2)CC1 [Example 309, 1-[(2-Oxo-1,2-dihydro-3-pyridinyl)methyl]-4-[2-[2-(2-phenylethoxy)phenyl]ethyl]piperidine oxalate]	6.3 µM	0.19 mg/kg	1 µM	–	–	–
O=C(O)C(=O)O.O=c1[nH]cccc1CN1CCC(CCc2ccccc2OCC2CCCC2)CC1 [Example 311, 1-[(2-Oxo-1,2-dihydro-3-pyridinyl)methyl]-4-[2-[2-(cyclopentylmethyloxy)phenyl]ethyl]piperidine oxalate]	2 µM	0.13 mg/kg	0.7 µM	–	–	–
Cl.Cl.O=c1[nH]cccc1CN1CCC(CCc2ccccc2NCc2ccccc2)CC1 [Example 313, 1-[(2-Oxo-1,2-dihydro-3-pyridinyl)methyl]-4-[2-[2-(benzylamino)phenyl]ethyl]piperidine dihydrochloride]	8.6 µM	0.16 mg/kg	1.5 µM	–	–	–
O=c1[nH]cc(Cl)cc1CN1CCC(CCc2cccc3c2OCO3)CC1 [Example 319]	10 µM	0.082 mg/kg	10.2 µM	–	–	–
O=c1[nH]cc(Cl)cc1CN1CCC(CCc2ccccc2F)CC1 [Example 320]	14.8 µM	0.041 mg/kg	17 µM	–	–	–
CC(C)COc1ccccc1CCC1CCN(Cc2cc(Cl)c[nH]c2=O)CC1.O=C(O)C(=O)O [Example 323, 1-[(5-Chloro-2-oxo-1,2-dihydro-3-pyridinyl)methyl]-4-[2-[2-(isobutyloxy)phenyl]ethyl]piperidine oxalate]	3.9 µM	0.083 mg/kg	4.8 µM	–	–	–
O=C(O)C(=O)O.O=c1[nH]cccc1CN1CCC(CCc2ccccc2OC(F)(F)F)CC1 [Example 326, 1-[(2-Oxo-1,2-dihydro-3-pyridinyl)methyl]-4-[2-[2-(trifluoromethoxy)phenyl]ethyl]piperidine oxalate]	3.98 µM	0.18 mg/kg	1.9 µM	–	–	–
O=c1[nH]cccc1CN1CCC(C=C(c2ccccc2)c2ccccc2)CC1 [Example 333, 1-[(2-Oxo-1,2-dihydro-3-pyridinyl)methyl]-4-(2,2-diphenyl-1-ethenyl)piperidine]	4.9 µM	0.15 mg/kg	5.4 µM	–	–	–
O=C(O)C(=O)O.O=c1[nH]cccc1CN1CCC(/C=C/c2ccccc2OCc2ccccc2)CC1 [Example 338, 1-[(2-Oxo-1,2-dihydro-3-pyridinyl)methyl]-4-[(E)-2-[2-(benzyloxy)phenyl]-1-ethenyl]piperidine oxalate]	11.4 µM	0.19 mg/kg	1.2 µM	–	–	–
O=c1[nH]cc(Cl)cc1CN1CCC(COc2ccc(F)cc2F)CC1 [Example 370, 1-[(5-Chloro-2-oxo-1,2-dihydro-3-pyridinyl)methyl]-4-[(2,4-difluorophenoxy)methyl]piperidine]	45 µM	0.081 mg/kg	33.6 µM	–	–	–
O=c1[nH]cc(Cl)cc1CN1CCC(COc2cc(F)ccc2F)CC1 [Example 372, 1-[(5-Chloro-2-oxo-1,2-dihydro-3-pyridinyl)methyl]-4-[(2,5-difluorophenoxy)methyl]piperidine]	9.3 µM	0.11 mg/kg	21.8 µM	–	–	–
O=c1[nH]cccc1CN1CCC(COc2ccccc2Cl)CC1 [Example 376, 1-[(2-Oxo-1,2-dihydro-3-pyridinyl)methyl]-4-[(2-chlorophenoxy)methyl]piperidine]	–	0.07 mg/kg	20.3 µM	–	–	–
O=c1[nH]c2ccccc2cc1CN1CCC(CCc2cccc3c2OCO3)CC1 [Example 380, 1-[(2-Oxo-1,2-dihydro-3-quinolinyl)methyl]-4-[2-[2,3-(methylenedioxy)phenyl]ethyl]piperidine]	–	–	–	8.6 µM	0.1 mg/kg	3.9 µM
O=c1[nH]c2ccccc2cc1CN1CCC(CCc2cccc(-c3ccccc3)c2)CC1 [Example 381, 1-[(2-Oxo-1,2-dihydro-3-quinolinyl)methyl]-4-[2-(3-(phenylphenyl)ethyl]piperidine oxalate]	100 µM	0.56 mg/kg	3 µM	–	–	–
